Experimental data taken from PubChem BioAssay AID248 (DTP/NCI, 2004).
Values joined by “and” are separate entries in the source; they are usually repeats but may differ in a detail not shown here. Identical values can stand only once. Inconclusive results and toxic doses are left out.

System: L1210 leukemia ip in BDF1 mice, survival T/C
Assay: NCI In Vivo Anticancer Drug Screen. Data for tumor model L1210 Leukemia (intraperitoneal) in B6D2F1 (BDF1) mice
Conditions: endpoint: mean survival time, higher = longer survival
Method in brief: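 Value reflects the ratio of survival in compound-treated mice to survival in vehicle-treated controls, with both groups carrying the same transplanted tumor.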

[1] = dose: 100.0 mg/kg/injection, schedule: Q01DX001 (ip), vehicle: carboxymethylcellulose (CMC)
[2] = dose: 200.0 mg/kg/injection, schedule: Q01DX001 (ip), vehicle: carboxymethylcellulose (CMC)
[3] = dose: 400.0 mg/kg/injection, schedule: Q01DX001 (ip), vehicle: carboxymethylcellulose (CMC)
[4] = dose: 100.0 mg/kg/injection, schedule: Q01DX009 (ip), vehicle: Klucel (hydroxypropylcellulose) (HPC)
[5] = dose: 200.0 mg/kg/injection, schedule: Q01DX009 (ip), vehicle: Klucel (hydroxypropylcellulose) (HPC)
[6] = dose: 100.0 mg/kg/injection, schedule: Q01DX009 (ip), vehicle: saline with Tween-80
[7] = dose: 200.0 mg/kg/injection, schedule: Q01DX009 (ip), vehicle: saline with Tween-80
[8] = dose: 400.0 mg/kg/injection, schedule: Q01DX009 (ip), vehicle: saline with Tween-80
[9] = dose: 75.0 mg/kg/injection, schedule: Q01DX001 (ip), vehicle: Klucel (hydroxypropylcellulose) (HPC)
[10] = dose: 150.0 mg/kg/injection, schedule: Q01DX001 (ip), vehicle: Klucel (hydroxypropylcellulose) (HPC)
[11] = dose: 50.0 mg/kg/injection, schedule: Q01DX009 (ip), vehicle: Klucel (hydroxypropylcellulose) (HPC)

SMILES: Cc1cc2cc3c(=O)[nH]c(=O)nc-3n(CC(O)C(O)C(O)COP(=O)(O)O)c2cc1C (configuration not stated)
- T/C (dose: 25.0 mg/kg/injection, schedule: Q01DX009 (ip), vehicle: saline): 96 % of control
- T/C (dose: 50.0 mg/kg/injection, schedule: Q01DX009 (ip), vehicle: saline): 100 % of control
- T/C (dose: 100.0 mg/kg/injection, schedule: Q01DX009 (ip), vehicle: saline): 94 % of control and 89 % of control
- T/C (dose: 100.0 mg/kg/injection, schedule: Q04DX003 (ip), vehicle: saline): 110 % of control
- T/C (dose: 200.0 mg/kg/injection, schedule: Q01DX009 (ip), vehicle: saline): 86 % of control
- T/C (dose: 200.0 mg/kg/injection, schedule: Q04DX003 (ip), vehicle: saline): 100 % of control
- T/C (dose: 400.0 mg/kg/injection, schedule: Q04DX003 (ip), vehicle: saline): 98 % of control

SMILES: CN(C)C(=S)NNC(=O)c1ccc(Cl)cc1
- T/C (dose: 6.25 mg/kg/injection, schedule: Q01DX001 (ip), vehicle: saline with Tween-80): 98 % of control
- T/C (dose: 12.5 mg/kg/injection, schedule: Q01DX001 (ip), vehicle: saline with Tween-80): 101 % of control
- T/C (dose: 25.0 mg/kg/injection, schedule: Q01DX001 (ip), vehicle: saline with Tween-80): 104 % of control

SMILES: Cc1ccc(S(=O)(=O)N(c2cc(C)ccc2C)c2ccccc2[N+](=O)[O-])cc1
- T/C (dose: 50.0 mg/kg/injection, schedule: Q01DX001 (ip), vehicle: carboxymethylcellulose (CMC)): 98 % of control
- T/C [1]: 91 % of control
- T/C [2]: 96 % of control
- T/C [3]: 98 % of control

SMILES: N#Cc1cn(C2OC(CO)C(O)C2O)c2ncnc([Se]Cc3ccc([N+](=O)[O-])cc3)c12 (configuration not stated)
- T/C (dose: 3.12 mg/kg/injection, schedule: Q01DX005 (ip), vehicle: saline): 109 % of control
- T/C (dose: 6.25 mg/kg/injection, schedule: Q01DX005 (ip), vehicle: saline): 106 % of control
- T/C (dose: 12.5 mg/kg/injection, schedule: Q01DX005 (ip), vehicle: saline): 102 % of control

SMILES: CC(=O)Oc1ccc(Nc2c3ccccc3nc3ccccc23)cc1
- T/C (dose: 25.0 mg/kg/injection, schedule: Q04DX002 (ip), vehicle: saline with Tween-80): 106 % of control
- T/C (dose: 44.0 mg/kg/injection, schedule: Q04DX003 (ip), vehicle: saline with Tween-80): 116 % of control
- T/C (dose: 66.0 mg/kg/injection, schedule: Q04DX003 (ip), vehicle: saline with Tween-80): 119 % of control
- T/C (dose: 100.0 mg/kg/injection, schedule: Q04DX002 (ip), vehicle: saline with Tween-80): 181 % of control
- T/C (dose: 100.0 mg/kg/injection, schedule: Q04DX003 (ip), vehicle: saline with Tween-80): 123 % of control
- T/C (dose: 150.0 mg/kg/injection, schedule: Q04DX003 (ip), vehicle: saline with Tween-80): 116 % of control

SMILES: CC[CH2][Pb]([CH2]CC)([CH2]CC)[O]C(=O)C(F)(F)F
- T/C (dose: 12.5 mg/kg/injection, schedule: Q04DX002 (ip), vehicle: Klucel (hydroxypropylcellulose) (HPC)): 107 % of control
- T/C (dose: 25.0 mg/kg/injection, schedule: Q04DX002 (ip), vehicle: Klucel (hydroxypropylcellulose) (HPC)): 95 % of control

SMILES: O=C(O)C1C(c2ccccc2)=C1c1ccc(Br)cc1 (configuration not stated)
- T/C [4]: 100 % of control
- T/C (dose: 100.0 mg/kg/injection, schedule: Q04DX003 (ip), vehicle: Klucel (hydroxypropylcellulose) (HPC)): 93 % of control
- T/C [5]: 118 % of control
- T/C (dose: 200.0 mg/kg/injection, schedule: Q04DX003 (ip), vehicle: Klucel (hydroxypropylcellulose) (HPC)): 102 % of control
- T/C (dose: 400.0 mg/kg/injection, schedule: Q01DX009 (ip), vehicle: Klucel (hydroxypropylcellulose) (HPC)): 101 % of control
- T/C (dose: 400.0 mg/kg/injection, schedule: Q04DX003 (ip), vehicle: Klucel (hydroxypropylcellulose) (HPC)): 88 % of control

SMILES: O=S1(=O)N2CN3CN(C2)CN1C3
- T/C (dose: 100.0 mg/kg/injection, schedule: Q01DX001 (ip), vehicle: Klucel (hydroxypropylcellulose) (HPC)): 94 % of control
- T/C [4]: 97 % of control
- T/C (dose: 200.0 mg/kg/injection, schedule: Q01DX001 (ip), vehicle: Klucel (hydroxypropylcellulose) (HPC)): 102 % of control
- T/C [5]: 100 % of control
- T/C (dose: 400.0 mg/kg/injection, schedule: Q01DX001 (ip), vehicle: Klucel (hydroxypropylcellulose) (HPC)): 104 % of control

SMILES: CCN(CC)c1ccc(/C=N/N=C(N)N)cc1
- T/C (dose: 3.8 mg/kg/injection, schedule: Q01DX Z (ip), vehicle: other): 109 % of control
- T/C (dose: 7.5 mg/kg/injection, schedule: Q01DX Z (ip), vehicle: other): 88 % of control
- T/C (dose: 15.0 mg/kg/injection, schedule: Q01DX Z (ip), vehicle: other): 97 % of control

SMILES: COc1ccc(CN2CCCN(Cc3ccc(OC)cc3)C2c2ccc(OC)cc2)cc1
- T/C [6]: 92 % of control
- T/C (dose: 100.0 mg/kg/injection, schedule: Q04DX003 (ip), vehicle: acetone): 94 % of control
- T/C [7]: 98 % of control and 87 % of control
- T/C (dose: 200.0 mg/kg/injection, schedule: Q04DX003 (ip), vehicle: acetone): 97 % of control
- T/C [8]: 96 % of control
- T/C (dose: 400.0 mg/kg/injection, schedule: Q04DX003 (ip), vehicle: acetone): 95 % of control

SMILES: Ic1sc(I)c(I)c1I
- T/C [1]: 95 % of control
- T/C [2]: 93 % of control
- T/C [3]: 104 % of control

SMILES: Cc1nc(NNCc2ccccc2)n[nH]1
- T/C (dose: 37.5 mg/kg/injection, schedule: Q01DX001 (ip), vehicle: Klucel (hydroxypropylcellulose) (HPC)): 106 % of control
- T/C [9]: 101 % of control
- T/C [10]: 110 % of control

SMILES: COc1cccc(CCCCO)c1
- T/C (dose: 50.0 mg/kg/injection, schedule: Q01DX009 (ip), vehicle: saline with Tween-80): 91 % of control
- T/C [6]: 91 % of control

SMILES: CCS(=O)(=O)/C=C/c1cccs1
- T/C [4]: 104 % of control
- T/C [5]: 100 % of control

SMILES: O=C1C(Cl)=C(Cl)C(Cl)(Cl)C1(Cl)Cl
- T/C (dose: 12.5 mg/kg/injection, schedule: Q01DX009 (ip), vehicle: Klucel (hydroxypropylcellulose) (HPC)): 98 % of control
- T/C (dose: 12.5 mg/kg/injection, schedule: Q04DX003 (ip), vehicle: Klucel (hydroxypropylcellulose) (HPC)): 98 % of control
- T/C (dose: 25.0 mg/kg/injection, schedule: Q01DX009 (ip), vehicle: Klucel (hydroxypropylcellulose) (HPC)): 101 % of control
- T/C (dose: 25.0 mg/kg/injection, schedule: Q04DX003 (ip), vehicle: Klucel (hydroxypropylcellulose) (HPC)): 96 % of control
- T/C [11]: 94 % of control
- T/C (dose: 50.0 mg/kg/injection, schedule: Q04DX003 (ip), vehicle: Klucel (hydroxypropylcellulose) (HPC)): 100 % of control

SMILES: COc1cccc(C2N(Cc3ccc(OC)cc3OC)CCCN2Cc2ccc(OC)cc2OC)c1
- T/C (dose: 50.0 mg/kg/injection, schedule: Q01DX001 (ip), vehicle: saline): 89 % of control
- T/C (dose: 100.0 mg/kg/injection, schedule: Q01DX001 (ip), vehicle: saline): 96 % of control
- T/C (dose: 200.0 mg/kg/injection, schedule: Q01DX001 (ip), vehicle: saline): 91 % of control
- T/C (dose: 400.0 mg/kg/injection, schedule: Q01DX001 (ip), vehicle: saline): 96 % of control

SMILES: Nc1ccc(-c2ccc(N)cc2I)c(I)c1
- T/C (dose: 25.6 mg/kg/injection, schedule: Q04DX002 (ip), vehicle: saline with Tween-80): 100 % of control
- T/C (dose: 64.0 mg/kg/injection, schedule: Q04DX002 (ip), vehicle: saline with Tween-80): 95 % of control
- T/C (dose: 160.0 mg/kg/injection, schedule: Q04DX002 (ip), vehicle: saline with Tween-80): 100 % of control
- T/C (dose: 400.0 mg/kg/injection, schedule: Q04DX002 (ip), vehicle: saline with Tween-80): 103 % of control

SMILES: CCCCC(=O)C(OC)OC
- T/C [6]: 119 % of control
- T/C [7]: 95 % of control
- T/C [8]: 92 % of control

SMILES: CC(C)(C)SCC(NC(=O)OCc1ccccc1)C(=O)O (configuration not stated)
- T/C [11]: 100 % of control
- T/C [9]: 91 % of control
- T/C [4]: 89 % of control
- T/C [10]: 94 % of control
- T/C (dose: 300.0 mg/kg/injection, schedule: Q01DX001 (ip), vehicle: Klucel (hydroxypropylcellulose) (HPC)): 94 % of control
